Activity calls are given as the source filed them. How the calls were made is not given here.

The series has as its system CCRIS mutagenicity, Ames/micronucleus/aberration tests. In words: CCRIS mutagenicity studies.
[1] abbreviates: Test System: AMES SALMONELLA TYPHIMURIUM, Strain/Indicator: TA98, Metabolic Activation: NONE, Method: PREINCUBATION
[2] abbreviates: Test System: AMES SALMONELLA TYPHIMURIUM, Strain/Indicator: TA100, Metabolic Activation: NONE, Method: PREINCUBATION
Where [3] appears, read: Test System: AMES SALMONELLA TYPHIMURIUM, Strain/Indicator: TA1535, Metabolic Activation: NONE, Method: PREINCUBATION
Where [4] appears, read: Test System: AMES SALMONELLA TYPHIMURIUM, Strain/Indicator: TA1537, Metabolic Activation: NONE, Method: PREINCUBATION

As to `OC[C@@H](O)[C@@H](O[C@@H]1O[C@H](CO)[C@H](O)[C@H](O)[C@H]1O)[C@H](O)[C@@H](O)CO`, the mutagenic call was “inactive; negative” under setting [1]; “inactive; negative” (Test System: AMES SALMONELLA TYPHIMURIUM, Strain/Indicator: TA98, Metabolic Activation: RAT, LIVER, S-9, PHENOBARBITAL AND 5,6-BENZOFLAVONE, Method: PREINCUBATION); “inactive; negative” under setting [2]; “inactive; negative” (Test System: AMES SALMONELLA TYPHIMURIUM, Strain/Indicator: TA100, Metabolic Activation: RAT, LIVER, S-9, PHENOBARBITAL AND 5,6-BENZOFLAVONE, Method: PREINCUBATION); “inactive; negative” under setting [3]; “inactive; negative” (Test System: AMES SALMONELLA TYPHIMURIUM, Strain/Indicator: TA1535, Metabolic Activation: RAT, LIVER, S-9, PHENOBARBITAL AND 5,6-BENZOFLAVONE, Method: PREINCUBATION). Further, the mutagenic call under setting [4] is “inactive; negative”; the mutagenic call (Test System: AMES SALMONELLA TYPHIMURIUM, Strain/Indicator: TA1537, Metabolic Activation: RAT, LIVER, S-9, PHENOBARBITAL AND 5,6-BENZOFLAVONE, Method: PREINCUBATION) is “inactive; negative”; the mutagenic call (Test System: E. COLI, Strain/Indicator: WP2 UVRA, Metabolic Activation: NONE, Method: PREINCUBATION) was “inactive; negative”; the mutagenic call (Test System: E. COLI, Strain/Indicator: WP2 UVRA, Metabolic Activation: RAT, LIVER, S-9, PHENOBARBITAL AND 5,6-BENZOFLAVONE, Method: PREINCUBATION) is “inactive; negative”.
Take `CCCCCC(=O)CC`: the mutagenic call reads like this: (Test System: CHINESE HAMSTER V-79, Strain/Indicator: V-79 (HPRT)/6-THIOGUANINE, Metabolic Activation: NONE, Method: STANDARD PLATE) “inactive; negative”; (Test System: CHINESE HAMSTER V-79, Strain/Indicator: V-79 (HPRT)/6-THIOGUANINE, Metabolic Activation: RAT LIVER S-9, Method: STANDARD PLATE) “inactive; negative”.
`N#CCCC(Br)(C#N)CBr` (stereo not given): the mutagenic call by setting is: (End Point: In vivo micronucleus, Test System: Peripheral blood normochromatic erythrocytes, Species: Mouse, Strain/Sex: B6C3F1/Female, Route: Dermal) “inactive; negative”; (End Point: In vivo micronucleus, Test System: Peripheral blood normochromatic erythrocytes, Species: Mouse, Strain/Sex: B6C3F1/Male, Route: Dermal) “inactive; negative”; (Test System: Ames Salmonella typhimurium, Strain/Indicator: TA97, Metabolic Activation: Hamster, Liver, S-9, Aroclor 1254 (10 and 30%), Method: Preincubation) “inactive; negative”; (Test System: Ames Salmonella typhimurium, Strain/Indicator: TA97, Metabolic Activation: None, Method: Preincubation) “inactive; negative”; (Test System: Ames Salmonella typhimurium, Strain/Indicator: TA97, Metabolic Activation: Rat, Liver, S-9, Aroclor 1254 (10 and 30%), Method: Preincubation) “inactive; negative”; (Test System: Ames Salmonella typhimurium, Strain/Indicator: TA98, Metabolic Activation: Hamster, Liver, S-9, Aroclor 1254 (10 and 30%), Method: Preincubation) “inactive; negative”. Moreover, the mutagenic call by setting is: (Test System: Ames Salmonella typhimurium, Strain/Indicator: TA98, Metabolic Activation: None, Method: Preincubation) “inactive; negative”; (Test System: Ames Salmonella typhimurium, Strain/Indicator: TA98, Metabolic Activation: Rat, Liver, S-9, Aroclor 1254 (10 and 30%), Method: Preincubation) “inactive; negative”; (Test System: Ames Salmonella typhimurium, Strain/Indicator: TA100, Metabolic Activation: Hamster, Liver, S-9, Aroclor 1254 (10 and 30%), Method: Preincubation) “inactive; negative”; (Test System: Ames Salmonella typhimurium, Strain/Indicator: TA100, Metabolic Activation: None, Method: Preincubation) “inactive; negative”; (Test System: Ames Salmonella typhimurium, Strain/Indicator: TA100, Metabolic Activation: Rat, Liver, S-9, Aroclor 1254 (10 and 30%), Method: Preincubation) “inactive; negative”; (Test System: Ames Salmonella typhimurium, Strain/Indicator: TA1535, Metabolic Activation: Hamster, Liver, S-9, Aroclor 1254 (10 and 30%), Method: Preincubation) “inactive; negative”. Further, the mutagenic call was “inactive; negative” (Test System: Ames Salmonella typhimurium, Strain/Indicator: TA1535, Metabolic Activation: None, Method: Preincubation); “inactive; negative” (Test System: Ames Salmonella typhimurium, Strain/Indicator: TA1535, Metabolic Activation: Rat, Liver, S-9, Aroclor 1254 (10 and 30%), Method: Preincubation); “inactive; negative” (Test System: E. coli, Strain/Indicator: WP2 uvrA/pKM101, Metabolic Activation: None, Method: Preincubation); “inactive; negative” (Test System: E. coli, Strain/Indicator: WP2 uvrA/pKM101, Metabolic Activation: Rat, Liver, S-9, Aroclor 1254 (10%), Method: Preincubation).
For `O=C(O)COc1ccc(Cl)cc1`, the mutagenic call runs as follows: (Test System: AMES SALMONELLA TYPHIMURIUM, Strain/Indicator: TA97, Metabolic Activation: NONE, Method: STANDARD PLATE) “inactive; negative”; (Test System: AMES SALMONELLA TYPHIMURIUM, Strain/Indicator: TA97, Metabolic Activation: RAT, LIVER, S-9, AROCLOR 1254, Method: STANDARD PLATE) “inactive; negative”; (Test System: AMES SALMONELLA TYPHIMURIUM, Strain/Indicator: TA98, Metabolic Activation: NONE, Method: STANDARD PLATE) “inactive; negative”; (Test System: AMES SALMONELLA TYPHIMURIUM, Strain/Indicator: TA98, Metabolic Activation: RAT, LIVER, S-9, AROCLOR 1254, Method: STANDARD PLATE) “inactive; negative”; (Test System: AMES SALMONELLA TYPHIMURIUM, Strain/Indicator: TA100, Metabolic Activation: NONE, Method: STANDARD PLATE) “inactive; negative”; (Test System: AMES SALMONELLA TYPHIMURIUM, Strain/Indicator: TA100, Metabolic Activation: RAT, LIVER, S-9, AROCLOR 1254, Method: STANDARD PLATE) “inactive; negative”. The mutagenic call (Test System: AMES SALMONELLA TYPHIMURIUM, Strain/Indicator: TA102, Metabolic Activation: NONE, Method: STANDARD PLATE) is “inactive; negative” and the mutagenic call (Test System: AMES SALMONELLA TYPHIMURIUM, Strain/Indicator: TA102, Metabolic Activation: RAT, LIVER, S-9, AROCLOR 1254, Method: STANDARD PLATE) was “inactive; negative”.
For `C=CC(=C)C`, the mutagenic call runs as follows: (End Point: IN VIVO CHROMOSOMAL ABERRATIONS, Test System: BONE MARROW CELLS, Species: MOUSE, Strain/Sex: B6C3F1/MALE, Route: INHALATION) “inactive; negative”; (End Point: IN VIVO MICRONUCLEUS, Test System: PERIPHERAL BLOOD LYMPHOCYTES, Species: MOUSE, Strain/Sex: B6C3F1/MALE, Route: INHALATION) “active; positive”; (Test System: AMES SALMONELLA TYPHIMURIUM, Strain/Indicator: TA98, Metabolic Activation: HAMSTER, LIVER, S-9, AROCLOR 1254 (10%), Method: PREINCUBATION) “inactive; negative”; under setting [1], “inactive; negative”; (Test System: AMES SALMONELLA TYPHIMURIUM, Strain/Indicator: TA98, Metabolic Activation: RAT, LIVER, S-9, AROCLOR 1254 (10%), Method: PREINCUBATION) “inactive; negative”; (Test System: AMES SALMONELLA TYPHIMURIUM, Strain/Indicator: TA98, Metabolic Activation: S-9, Method: PREINCUBATION) “inactive; negative”. Moreover, the mutagenic call reads like this: (Test System: AMES SALMONELLA TYPHIMURIUM, Strain/Indicator: TA100, Metabolic Activation: HAMSTER, LIVER, S-9, AROCLOR 1254 (10%), Method: PREINCUBATION) “inactive; negative”; under setting [2], “inactive; negative”; (Test System: AMES SALMONELLA TYPHIMURIUM, Strain/Indicator: TA100, Metabolic Activation: RAT, LIVER, S-9, AROCLOR 1254 (10%), Method: PREINCUBATION) “inactive; negative”; (Test System: AMES SALMONELLA TYPHIMURIUM, Strain/Indicator: TA100, Metabolic Activation: S-9, Method: PREINCUBATION) “inactive; negative”; (Test System: AMES SALMONELLA TYPHIMURIUM, Strain/Indicator: TA1535, Metabolic Activation: HAMSTER, LIVER, S-9, AROCLOR 1254 (10%), Method: PREINCUBATION) “inactive; negative”; under setting [3], “inactive; negative”. The mutagenic call (Test System: AMES SALMONELLA TYPHIMURIUM, Strain/Indicator: TA1535, Metabolic Activation: RAT, LIVER, S-9, AROCLOR 1254 (10%), Method: PREINCUBATION) was “inactive; negative”; the mutagenic call (Test System: AMES SALMONELLA TYPHIMURIUM, Strain/Indicator: TA1535, Metabolic Activation: S-9, Method: PREINCUBATION) is “inactive; negative”; the mutagenic call (Test System: AMES SALMONELLA TYPHIMURIUM, Strain/Indicator: TA1537, Metabolic Activation: HAMSTER, LIVER, S-9, AROCLOR 1254 (10%), Method: PREINCUBATION) was “inactive; negative”; the mutagenic call under setting [4] is “inactive; negative”; the mutagenic call (Test System: AMES SALMONELLA TYPHIMURIUM, Strain/Indicator: TA1537, Metabolic Activation: RAT, LIVER, S-9, AROCLOR 1254 (10%), Method: PREINCUBATION) is “inactive; negative”; the mutagenic call (Test System: E.COLI, Strain/Indicator: WP2UVRA/PKM101, Metabolic Activation: NONE, Method: PREINCUBATION) was “inactive; negative”. Moreover, under “Test System: E.COLI, Strain/Indicator: WP2UVRA/PKM101, Metabolic Activation: S-9, Method: PREINCUBATION”, the mutagenic call is “inactive; negative”.

These data come from PubChem BioAssay AID1259407 (Chemical Carcinogenesis Research Information System (CCRIS), 2018).
